The text below walks through data of US10092644B2, “Use of fluorinated cyclic dinucleotides as oral vaccine adjuvants” (BROCK UNIVERSITY, priority 2013, dated 2018).

Assay [1] has as its system H. pylori cell-free sonicate extract (HPCE). On the set-up: species or system C57BL/6 mice. The settings on record: mouse, in vivo, po.
The subject of the next assay is Listeria flagellin. Briefly: Oral immunization with Listeria flagellin admixed with adjuvant; ELISA for flagellin-specific antibodies. In kind it is in vivo, BALB/c mice. The settings on record: day 35. (ELISA stands for enzyme-linked immunosorbent assay.)
Assay [2] relates to splenocytes stimulated by HPCE. Particulars: mouse, in vivo, po.
The test system of the next assay is C. difficile flagellin. Briefly: Oral immunization with C. difficile flagellin admixed with adjuvant; ELISA for flagellin-specific antibodies. In kind it is in vivo, BALB/c mice. The settings on record: day 35.
Assay [3] relates to recombinant PsaA protein of S. pneumoniae. Put plainly: Intranasal immunization of mice with PsaA admixed with adjuvant; ELISA for PsaA-specific IgA and IgG isotypes. In kind it is in vivo, BALB/c mice. The source says: Mice. Six to eight-week-old female BALB/c or C57BL/6 mice were purchased from Charles Rivers Laboratories (St. Constant, Quebec). The animals were housed under specific-pathogen-free conditions in a federally licensed small animal containment level 2 facility, and given free access to sterile water and certified mouse chow. The animals were maintained and used in accordance with the recommendations of the Canadian Council on Animal Care Guide to the Care and Use of Experimental Animals, and the experimental procedures were approved by the institutional animal care committee.
(§1) Intranasal or oral immunization in mice. For intranasal immunization, mice were lightly anesthetized under isofluorane. On day 0, 14 and 21, groups of mice (n=5) were inoculated with 50 μl of various vaccine preparations or controls as detailed in Examples 1-5. For oral immunization, various vaccine preparations or controls in 0.2 ml volume were administered by gavage via an 18-gauge feeding needle.
At day 28, blood and mucosal samples (fecal pellets or/and vaginal wash) were collected as described elsewhere (Patel G B, Zhou H, Ponce A, Chen W (2007). Mucosal and systemic immune responses by intranasal immunization using archaeal lipid-adjuvanted vaccines. Vaccine 25: 8622-8636.). In some experiments, nasal wash samples were also collected at the end of experiment. For both the vaginal and nasal wash, the volume of the lavage fluid recovered from each mouse was recorded. Since the recovery of lavage volumes among different mice in our study were very similar (about 90%), the small variation among individual samples was not adjusted. All samples were stored at −20° C. until assay.
Vaginal wash samples were collected by slowly injecting and withdrawing (3-4 times) 50 μl PBS (pH 7.2) into the vagina of conscious mice, using a P100 pipette. The volume of the vaginal lavage fluid recovered from each mouse was recorded.
Enzyme-linked immunosorbent assay (ELISA) for PsaA-specific IgA and IgG isotypes. Levels of PsaA-specific antibodies in serum and mucosal samples were measured by an enzyme-linked immunosorbent assay (ELISA) modified from a previously described procedure (Yan H, Kuo Lee R, Tram K, Qiu H, Zhang J, Patel G B, Chen W. 3′,5′-Cyclic diguanylic acid elicits mucosal immunity against bacterial infection. Biochemical and Biophysical Research Communications, 2009; 387(3):581-4.). Briefly, 96-well Immunolon 2^R microplates (Thermo Electron Corporation, Milford, Mass.) were coated with 0.5 μg PsaA/well in 100 μl of 0.015 M sodium carbonate and 0.035 M sodium bicarbonate buffer (pH 9.6) at 4° C. overnight. All the subsequent incubations were carried out at room temperature. The wells were blocked by incubation with 5% bovine serum in PBS for 1 h, and then rinsed three times with PBS-0.05% Tween 20. Duplicates of 100 μl pre-diluted samples were added to the wells. Sample dilutions were as follows: 1:2 for fecal extracts and nasal washes, 1:2000 for serum IgG1, 1:500 for serum IgG2a and 1:50 for serum IgA. After the plates were incubated for 3 h, alkaline phosphatase-conjugated goat antibodies specific for mouse IgA, IgG1 and IgG2a (all from Caltag Laboratories, Burlingame, Calif.) were added and incubated for 1 h. Color reactions were developed by the addition of p-nitrophenyl phosphate (pNPP) substrate (KPL, Inc., Gaithersburg, Md.), and optical density was measured at 405 nm with an automated ELISA plate reader (Multiskan Ascent, Thermo Labsystems, Vantaa, Finland). Pooled samples collected from mice that had been intranasally immunized with the PsaA+CT or from the naïve mice were used as positive or negative controls respectively.
To determine if 2′-F-c-di-GMP can elicit mucosal immune responses to microbial (bacterial and viral) antigens, groups of BALB/c mice were intranasally (i.n.) immunized with 2 μg recombinant PsaA protein of S. pneumoniae admixed with 2.5 μg 2′-F-c-di-GMP, 2.5 μg c-di-GMP, or 10 μg c-di-GMP at day 0, 14 and 21. […]

The test system of a further assay is H. pylori SS1. Put plainly: Mouse model of H. pylori gastric colonization after oral immunization. In kind it is in vivo, mice.
A further assay relates to S. pneumoniae. Put plainly: Mouse S. pneumoniae nasopharyngeal colonization model after intranasal immunization. The assay is classed as in vivo, mice. The method, then:
as §1
Intranasal challenge of mice with S. pneumoniae. Fresh inocula were prepared for each experiment from a frozen stock of S. pneumoniae (type 14). […] The actual inoculum concentrations were determined by plating 10-fold serial dilutions on chocolate agar. Inoculated mice were sacrificed 3 days later and the nasal cavity was lavaged with 0.5 ml lavage fluid and aliquots (100 μl) of 10-fold serial dilutions of the lavage fluids were cultured, in duplicates, on chocolate agar plates to quantify the number of viable organisms.
Next, it was determined if the mucosal immune responses induced by the 2′-F-c-di-GMP adjuvanted vaccine are protective against mucosal infections in the well-established mouse S. pneumoniae colonization model. […] Mice were sacrificed 3 days after challenge, and the nasopharyngeal tract was lavaged and bacterial numbers in the nasal wash were determined.

The subject of assay [4] is pneumococcal surface adhesion A (Psa). Particulars: mice, intranasally, Psa together with c-di-GMP (Yan et al. 2009); cited from earlier work.
[5] abbreviates: oral 50 μg Listeria flagellin + 75 μg adjuvant.
Where [6] appears, read: oral 30 μg C. difficile flagellin + 75 μg adjuvant.
Where [7] appears, read: i.n. 2 μg PsaA admixed with 2.5 μg adjuvant at day 0, 14 and 21, samples day 28, FIG. 1.
Setting [8] is: i.n. with 2 μg PsaA, comparator 2.5 μg or 10 μg c-di-GMP.

In the case of 2′-F-c-di-GMP, in assay [1], the “IgG2a response in the serum compared with sham-immunized mice” value is recorded as “substantially higher”, the “antigen-specific IgA level in feces” value is on record as “substantial amount”, the “antigen-specific IgA level in serum” value is listed as “substantial amount” and the “antigen-specific IgA response in feces compared with sham-immunized mice” value is reported as “substantially higher”. Besides, in assay [1], the “antigen-specific serum IgG1 level” value is “substantial amount” and the “antigen-specific serum IgG2a level” value is recorded as “substantial amount”. Moreover, in the assay on Listeria flagellin (setting [5]), the “IgG1 response in the serum compared with sham-immunized mice” value is listed as “substantially higher”, the “IgG2a response in the serum compared with sham-immunized mice” value is listed as “substantially higher” and the “antigen-specific IgA response in feces compared with sham-immunized mice” value is recorded as “substantially higher”. In addition, in the assay on Listeria flagellin (oral 50 μg Listeria flagellin admixed with 75 μg adjuvant day 0, 14, 21, FIG. 6), the “Listeria flagellin-specific IgA in feces” value is “small amount”. For the same compound, in assay [2], the “IFN-γ produced by splenocytes compared to cells from CT-immunized mice” value is recorded as “even higher”, the “IFN-γ produced by splenocytes compared to sham-immunized mice” value was “substantially higher”, the “IL-2 produced by splenocytes compared to sham-immunized mice” value was “substantially higher” and the “IL-17 produced by splenocytes compared to sham-immunized mice” value is recorded as “substantially higher”. Moreover, in the assay with C. difficile flagellin (setting [6]), the “IgG1 response in the serum compared with sham-immunized mice” value is “substantially higher”, the “IgG2a response in the serum compared with sham-immunized mice” value was “substantially higher” and the “antigen-specific IgA response in feces compared with sham-immunized mice” value is recorded as “substantially higher”. The “C. difficile flagellin-specific IgA in feces” value in the assay with C. difficile flagellin (oral 30 μg C. difficile flagellin admixed with 75 μg adjuvant day 0, 14, 21, FIG. 6) is “substantial amount”. For the same compound, in assay [3] (setting [7]), the “PsaA-specific IgA in feces” value is recorded as “high level”, the “PsaA-specific IgA in nasal wash” value was “high level”, the “PsaA-specific IgA in serum” value is reported as “high level” and the “PsaA-specific serum IgG1 level” value is reported as “high level”. In assay [3] (setting [7]), the “PsaA-specific serum IgG2a level” value was “high level”. In assay [3] (setting [8]), the “IgG2a response in the serum compared to parental c-di-GMP” value is reported as “stronger”, the “antigen-specific IgA response in feces compared to parental c-di-GMP” value is given as “stronger” and the “antigen-specific IgA response in vaginal washings compared to parental c-di-GMP” value is “stronger”. Further, in the assay with H. pylori SS1 (HPCE+2′-F-c-di-GMP vs HPCE+CT, oral), the “magnitude of reduction of H. pylori colonization relative to HPCE adjuvanted with CT” value was “comparable”. Moreover, the “bacterial burdens in the gastric mucosa compared to sham (PBS)-immunized mice” value in the assay on H. pylori SS1 (both low or high doses of HPCE + 2′-F-c-di-GMP, oral) is reported as “significantly reduced bacterial burdens”. Also, in the assay on H. pylori SS1 (oral immunization, oral challenge 10^8 CFU H. pylori SS1 three times from day 35, stomach 6 weeks after first challenge, P<0.05 for adjuvanted group, FIG. 5), the “gastric colonization of H. pylori compared to sham-immunized mice” value was “significantly reduced colonization”. The “magnitude of reduction of S. pneumoniae colonization relative to PsaA+CT immunized mice” value in the assay on S. pneumoniae (PsaA+2′-F-c-di-GMP i.n., PsaA+CT data from Yan et al. 2009) was “comparable”. Also, in the assay with S. pneumoniae (i.n. immunization, i.n. challenge 4.55×10^6 CFU at day 35, nasal wash bacterial numbers 3 days after challenge, P<0.05 for adjuvanted group, FIG. 2), the “nasopharyngeal colonization of S. pneumoniae compared to sham-immunized mice” value was “significantly reduced colonization”.

In the case of `Nc1nc2c(ncn2C2OC3COP(=O)(O)OC4C(COP(=O)(O)OC3C2O)OC(n2cnc3c(=O)[nH]c(N)nc32)C4O)c(=O)[nH]1` (centres unmarked) [c-di-GMP, 3′,5′-cyclic diguanylic acid], in assay [4], the “antigen specific antibody response” value is recorded as “enhanced”.
